# Laboratory results from patent US12162861B2, “Dopamine D3 receptor selective antagonists/partial agonists; method of making; and use thereof” (THE UNITED STATES OF AMERICA, AS REPRESENTED BY THE …, priority 2016, dated 2024).
# What was measured:
# [1] = Pharmacokinetics in rats after oral administration; type: in vivo, rat; conditions: 10 mg/kg oral
# Procedure: Male Long-Evans rats with body weights ˜250 grams (Charles River Laboratories, Raleigh, NC, USA) were used in this study. All rats were housed individually in a climate-controlled room under a 12 h light/dark cycle. Food and water were available ad libitum throughout the experiments. All experimental procedures were conducted in accordance with the Guide for the Care and Use of Laboratory Animals and were approved by the Animal Care and Use Committee of the National Institute on Drug Abuse of the U.S. National Institutes of Health. Experimental (oral gavage) procedures: The animals were gently restrained (grasp the animal by the loose skin of the neck and back) to immobilize the head but not such that the animals vocalize or show other signs of distress. Maintained the animal in an upright (vertical) position and passed the gavage needle (19-gauge) along the side of the mouth. Following the roof of the mouth, advanced the needle into the esophagus and toward the stomach. After the needle was passed to the correct length, the compound was injected. […] A volume of 3 μL was injected onto the ultra-performance liquid chromatography (UPLC) instrument for quantitative analysis using a temperature-controlled autosampler operating at 10° C. […] Quantification was performed in multiple-reaction monitoring (MRM) mode. […]
# [2] = Phase I metabolic stability in monkey liver microsomes; type: in vitro ADME, rhesus monkey; conditions: monkey liver microsomes, Phase I
# Procedure: Methods: Phase I metabolic stability assay was conducted in rat and rhesus monkey liver microsomes. For phase I metabolism, the reaction was carried out with 100 mM potassium phosphate buffer, pH 7.4, in the presence of NADPH regenerating system (1.3 mM NADPH, 3.3 mM glucose 6-phosphate, 3.3 mM MgCl2, 0.4 U/mL glucose-6-phosphate dehydrogenase, 50 μM sodium citrate). Reactions in triplicate were initiated by addition of the liver microsomes to the incubation mixture (compound final concentration was 10 μM; 0.5 mg/mL microsomes). Negative controls in the absence of cofactors were carried out to determine the specific cofactor-free degradation. Compound disappearance was monitored via LC/MS/MS. Chromatographic analysis was performed using an Accela™ ultra high-performance system consisting of an analytical pump, and an autosampler coupled with TSQ Vantage mass spectrometer (Thermo Fisher Scientific Inc., Waltham MA). […] The mobile phase used was composed of 0.1% Formic Acid in Acetonitrile and 0.1% Formic Acid in H2O with gradient elution, starting with 10% (organic) linearly increasing to 99% up to 2 min, maintaining at 99% (2-2.5 min) and re-equilibrating to 10% by 2.7 min. The total run time for each analyte was 5.0 min.
SMILES,"Kp ([1]; male, Long-Evans, rat, brain and plasma, read-out: brain/plasma ratio)",% at 30 min. ([2]; 30 min) [%],% at 60 min. ([2]; 60 min) [%],"exposures in brain and plasma, R- versus S-enantiomer ([1]; FIG. 12A)"
"CCc1cccc(N2CCN(C[C@@H](O)CCNC(=O)c3cc4ccccc4[nH]3)CC2)c1Cl [(S)-19, (S)—N-(4-(4-(2-chloro-3-ethylphenyl)piperazin-1-yl)-3-hydroxybutyl)-1H-indole-2-carboxamide]",6,–,–,–
"CCc1cc(Cl)c(OC)c(N2CCN(C[C@H](O)CCNC(=O)c3cc4ccccc4[nH]3)CC2)c1 [(R)-29, (R)—N-(4-(4-(3-chloro-5-ethyl-2-methoxyphenyl)piperazin-1-yl)-3-hydroxybutyl)-1H-indole-2-carboxamide]",–,9,4,twice higher exposures in both brain and plasma
